{"source": "patent US9233166B2", "about": "“Supramolecular functionalization of graphitic nanoparticles for drug delivery” (The Board of Trustees of the Leland Stanford Junior …, priority 2007, dated 2016)", "key": {"[1]": {"system": "HCT-116 colon cancer cell line", "assay": "MTS cell toxicity assay, HCT-116", "assay_type": "cell-based", "conditions": "Homo sapiens", "description": "(§1) HCT-116 colon cancer cell line, OVCAR-3 ovarian cancer cell line, U87MG glioma cell line and MDA-MB-435 breast cancer cell line were all obtained from American Type Culture Collect (ATCC) and cultured in the recommended conditions. […] After incubation for 72 hours, relative cell viability was measured by standard MTS assay using a CellTiter 96 kit (promega). For NGO-PEG toxicity test, cell medium containing NGO-PEG was changed to fresh medium at 72 h before cell viability test to avoid the dark color of NGO-PEG at high concentrations, which interferes the absorbance reading in MTS assay."}, "[2]": {"system": "OVCAR-3 ovarian cancer cell line", "assay": "MTS cell toxicity assay, OVCAR-3", "assay_type": "cell-based", "conditions": "Homo sapiens, 72 h drug incubation", "description": "as §1"}, "U87MG glioma cell line": {"system": "U87MG glioma cell line", "assay": "MTS cell toxicity assay, U87MG", "assay_type": "cell-based", "conditions": "Homo sapiens, U-87 MG, 72 h drug incubation", "description": "as §1"}, "[3]": {"system": "MDA-MB-435 breast cancer cell line", "assay": "MTS cell toxicity assay, MDA-MB-435", "assay_type": "cell-based", "conditions": "Homo sapiens, MDA-MD-435 (breast), 72 h drug incubation", "description": "as §1"}, "[4]": {"assay": "Water solubility of NGO-PEG-SN38", "assay_type": "physicochemical", "conditions": "in terms of SN38", "from_the_text": "The existence of aromatic conjugated domains on GO has been shown by NMR previously (Lerf, A.; He, H. Y.; Forster, M.; Klinowski, J., J. Phys. Chem. B, 1998, 102, 4477-4482)."}, "Raji B-cells [5]": {"system": "Raji B-cells", "assay": "MTS cell viability assay, Raji cells (NGO-PEG-Rituxan/DOX)", "assay_type": "cell-based", "conditions": "2 uM and 10 uM DOX, vs free DOX, NGO-PEG/DOX and unconjugated mixture", "description": "Doxorubicin (DOX) loading onto NGO-PEG (and NGO-PEG-Rituxan) was done by simply mixing 0.5 mM of DOX with the NGO-PEG solution (˜0.2 mg/ml) at pH 8 overnight. Unbound excess DOX was removed by filtration through a 100 kDa filter and repeated rinse. The formed NGO-PEG/DOX complexes were re-suspended and stored at 4° C. Concentration of DOX loaded onto NGO-PEG was measured by the absorbance peak at 490 nm (characteristic of DOX, after subtracting the absorbance of NGO-PEG at that wavelength) with a molar extinction coefficient of 1.05×104 M·cm-1. Both Raji and CEM cells were incubated with free DOX, NGO-PEG/DOX, NGO-PEG/DOX+Rituxan (unconjugated) and NGO-PEG-Ri/DOX at DOX concentrations of 2 μM or 10 μM for 2 hours and washed by PBS twice before transferring into fresh cell medium. After another 48 h incubation, Cell viability was measured by the MTS assay with CellTiter96 kit (Promega).\nFor DOX loaded onto NGO-PEG-rituximab, we incubated the conjugates with Raji cells at 2 uM and 10 uM DOX concentrations."}, "Raji B-cells [6]": {"system": "Raji B-cells", "assay": "NIR photoluminescence imaging of cell binding", "assay_type": "cell-based", "conditions": "4° C., Raji B-cells vs CEM T-cells", "description": "We covalently conjugated a B-cell specific antibody, Rituxan® rituximab (anti-CD20) to NGO-PEG (NGO-PEG-rituximab) to selectively recognize and bind to B cell lymphoma cells. We incubated B-cells and T-cells in solutions of NGO-PEG-rituximab conjugates at 4° C. to allow the conjugates to interact with the cell surface but block internalization via endocytosis. The cells were then washed and imaged by detecting NIR photoluminescence from 1100 to 2200 nm using an InGaAs detector under 658 nm excitation (laser spot size ˜1 μm). […] This confirmed selective NGO-PEG-Ab binding to B-cells over T cells. […] Nevertheless, the fluorescence quantum yield (QY) in the NIR-IR region appeared low.\nThiolated Rituxan® was conjugated to the amine groups on NGO-PEG via a sulfo-SMCC linker (Pierce Inc.). […] All NIR fluorescence images were taken using an inverted NIR fluorescence microscope in confocal mode. […] The collected light went through a 900 nm long pass filter (Omega) and a 1100 nm long pass filter (ThorLabs) to block reflected excitation and reduce background fluorescence from the sample holder. […] Background fluorescence from the sample holder (˜160 counts) was subtracted to give relevant statistics about the effectiveness of NGO-PEG binding."}, "4T1 tumors": {"system": "4T1 tumors", "assay": "In vivo treatment of 4T1 murine breast cancer model", "design": "species or system Balb/c mice", "conditions": "PTX 5 mg/kg every 6 days", "description": "Female Balb/c mice with implanted 4T1 tumors were treated with the compositions shown in the graphs at the same PTX dose (5 mg/kg, every 6 days). […] No obvious side effects were seen. No mouse in the treatment group died, and no average drop in body weigh was seen (FIG. 19). The tumor growth curves were obtained with 5 mice in each group to get the average tumor volumes and standard deviations.\nAll animal experiments were performed under a protocol approved by Stanford's Administrative Panel on Laboratory Animal Care (APLAC). The 4T1 tumor models were generated by subcutaneous injection of 2×10^6 cells in 50 μl PBS into the right shoulder of female Balb/c mice. The mice were used for treatment when the tumor volume reached 50-100 mm^3 (˜6 days after tumor inoculation). […] The tumor sizes were measured by a caliper every the other day and calculated as the volume=(tumor length)×(tumor width)^2/2. Relative tumor volumes (FIG. 24) were calculated as V/V0 (V0 was the tumor volume when the treatment was initiated).\nThe mice were observed daily for clinical symptoms and the tumor volume was measured by a digital caliper every other day."}, "MCF-7 cells": {"system": "MCF-7 cells", "assay": "MTS cell viability assay, MCF-7 cells (SWNT-DOX formulations)", "assay_type": "cell-based", "conditions": "integrin αvβ3 negative", "protocol": "MCF-7 breast cancer cells and U87MG human glioblastoma cancer cells (both from American Type Culture Collection, ATCC) were cultured under standard conditions. Cell viability after various treatments was measured by the MTS assay with CellTiter96 kit (Promega)."}, "[7]": {"assay": "Absorbance of free doxorubicin on heating", "assay_type": "physicochemical", "conditions": "after 24 hours", "description": "The diameter distributions of two types of SWNTs were obtained by AFM topographic height measurements of ˜100 PL-PEG functionalized nanotubes in each material, after depositing them on Si substrates from solutions (FIG. 12). Both Laser PL-SWNT-DOX and Hipco PL-SWNT-DOX (DOX loaded at pH=9) were incubated in PBS and kept at various temperatures (20° C., 40° C., 60° C., 80° C.). Released doxorubicin was removed at different time points and the retained doxorubicin was measured by UV-VIS-NIR to get temperature dependent releasing curves (FIGS. 13A and 13B). […] This was corrected in obtaining our release curves. The half-lives (t1/2) of doxorubicin on PEGylated SWNTs at various temperatures were obtained by fitting the releasing curves to exponential decays. We then used Arrhenius fits of 1/t1/2(T)=A×exp(−EB/kBT) where A is a constant for extracting binding energy EB of DOX on the PEGylated Hipco and laser-ablation nanotubes."}, "[8]": {"system": "Raji B-cell lymphoma tumors", "assay": "In vivo treatment of Raji tumor bearing SCID mice", "description": "Each SCID mouse was subcutaneously injected with 10 million Raji cells on its back. The treatment was initiated when the tumors reached sizes of ˜400 mm^3 (2-3 weeks after tumor inoculation). The tumor bearing mice were i.v. injected with different formulations of DOX including free DOX, SWNT-DOX and Doxil at 5 mg/kg of normalized DOX dose (or 10 mg/kg for SWNT-DOX) as well as related controls weekly. The tumor sizes were measured by a caliper three times a week and calculated as the volume=(tumor length)×(tumor width)^2/2. Relative tumor volumes were calculated as V/V0 (V0 was the tumor volume when the treatment was initiated). Mice were weighed with the relative body weights normalized to their initial weights.\nRaji tumor bearing SCID mice were treated with different formulations of DOX at the weekly by i.v. injection. Plain SWNT and separated injections of plain SWNT plus free DOX were used as the controls. The tumor sizes were normalized to their initial size when the treatment was started (FIG. 26A-D)."}, "[9]": {"conditions": "mouse, in vivo, iv", "protocol": "Blood circulation was measured by drawing ˜15 μl blood from the tail vein of Raji tumor bearing SCID mice post injection of free DOX or SWNT-DOX. The blood samples were dissolved in a lysis buffer 1 (1% SDS, 1% Triton X-100, 40 mM Tris Acetate, 10 mM EDTA, 10 mM DTT) with brief sonication. Concentration of SWNTs in the blood was measured by a Raman method. […] In brief, DOX was extracted by incubating blood samples in 1 ml of 0.75 M HCl in isopropanol (IPA) at −20° C. overnight. After centrifuge at 24,000 g for 15 minutes, the supernatant was taken for fluorescence measurement using a fluorolog-3 fluorometer. A standard calibration curve with obtained by measuring fluorescence of extraction solutions with known DOX concentrations. DOX loaded on SWNTs can be completely pulled from nanotubes by the extraction solution with ˜100% recover of fluorescence (DOX fluorescence is quenched once loaded on nanotubes).\nBlood circulation data were plotted as the blood DOX or SWNT levels (unit: % ID/g) against time p.i. […]\nWe injected free DOX or SWNT-DOX to Raji tumor bearing SCID mice by intravenous (i.v.) injection via tail veins. Blood was drawn at different time points post injection (p.i.) with DOX concentrations measured by fluorescence spectra."}, "[10]": {"conditions": "HCT-116 (colon), 72 h drug incubation, read-out: IC50 values"}}, "note": "Where “and” joins values, the source holds several entries; their conditions need not be identical. Equal values may be shown once. Read-outs that look alike come from different tables or passages of the source."}
{"compound": "CCc1c2c(nc3ccc(O)cc13)-c1cc3c(c(=O)n1C2)COC(=O)[C@]3(O)CC", "note": "[SN38, 7-ethyl-10-hydroxycamptothecin]", "values": [{"measurement": "IC50", "setting": "[1]; [10]", "result": 15, "unit": "nM"}, {"measurement": "IC50", "setting": "[2]", "result": 0.3, "unit": "nM"}, {"measurement": "IC50", "setting": "U87MG glioma cell line", "result": 67, "unit": "nM"}, {"measurement": "IC50", "setting": "[3]", "result": 3, "unit": "nM"}, {"measurement": "water solubility", "setting": "[4]", "result": "very insoluble in water"}]}
{"compound": "NGO-PEG-Rituxan/DOX", "values": [{"measurement": "DOX delivery and cell killing", "setting": "Raji B-cells [5]", "result": "Much enhanced DOX delivery and cell killing"}]}
{"compound": "NGO-PEG-rituximab", "values": [{"measurement": "cell surface binding (NIR photoluminescence)", "setting": "Raji B-cells [6]", "result": "selectively on positive Raji B-cells surface and not on negative CEM T-cells"}]}
{"compound": "CCc1c2c(nc3ccc(OC(=O)N4CCC(N5CCCCC5)CC4)cc13)-c1cc3c(c(=O)n1C2)COC(=O)[C@]3(O)CC", "note": "[CPT-11, irinotecan]", "values": [{"measurement": "IC50", "setting": "[1]; HCT-116, 72 h, read-out: 50% growth inhibition concentration (IC50)", "result": "~10000", "unit": "nM"}, {"measurement": "IC50", "setting": "[1]; [10]", "result": 11000, "unit": "nM"}, {"measurement": "IC50", "setting": "[2]", "result": 3000, "unit": "nM"}, {"measurement": "IC50", "setting": "U87MG glioma cell line", "result": "> 20000", "unit": "nM"}, {"measurement": "IC50", "setting": "[3]", "result": 6000, "unit": "nM"}]}
{"compound": "CC(=O)O[C@H]1C(=O)[C@@]2(C)[C@H]([C@H](OC(=O)c3ccccc3)[C@]3(O)C[C@H](OC(=O)[C@H](O)[C@@H](NC(=O)c4ccccc4)c4ccccc4)C(C)=C1C3(C)C)[C@]1(OC(C)=O)CO[C@@H]1C[C@@H]2O", "note": "[free PTX, paclitaxel]", "values": [{"measurement": "lung metastasis", "setting": "4T1 tumors", "result": "obvious lung metastasis was observed"}]}
{"compound": "COc1cccc2c1C(=O)c1c(O)c3c(c(O)c1C2=O)C[C@@](O)(C(=O)CO)C[C@@H]3O[C@H]1C[C@H](N)[C@H](O)[C@H](C)O1", "note": "[free DOX, doxorubicin]", "values": [{"measurement": "toxicity (concentration dependent survival)", "setting": "MCF-7 cells", "result": "higher toxicity than both PL-SWNT-DOX and PL-SWNT-RGD-DOX"}, {"measurement": "drop of absorbance on heating", "setting": "[7]; 60° C.", "result": "~30", "unit": "%"}, {"measurement": "drop of absorbance on heating", "setting": "[7]; 80° C.", "result": "~50", "unit": "%"}, {"measurement": "mice death", "setting": "[8]; 5 mg/kg", "result": "2 out of 10 and 2"}, {"measurement": "tumor growth (folds of initial size)", "setting": "[8]; 5 mg/kg DOX weekly i.v., in two weeks", "result": "2.90±0.19", "unit": "folds"}, {"measurement": "body weight loss", "setting": "[8]; 5 mg/kg, within two weeks", "result": "~20", "unit": "%"}, {"measurement": "mouse death and body weight drop", "setting": "[8]; 10 mg/kg", "result": "all the tested mice died within 2 weeks"}, {"measurement": "DOX circulation half-life", "setting": "[9]", "result": 12.6, "unit": "min"}, {"measurement": "total area under curve (AUC0-∞)", "setting": "[9]", "result": 5300, "unit": "ng·h/mL"}]}
